We go through four compounds from patent US20260315446A1, “ANTIFUNGAL COMPOUNDS AND USES THEREOF” (priority 2023, published 2026).

The test system of one assay is Aspergillus fumigatus. In words: Broth microdilution MIC/MEC (Example 1). Type of assay: cell-based. The note with it: for minimal effective concentration: Aspergillus fumigatus, strain Af293, read-out: MEC against Aspergillus fumigatus (Af293). Here is the method:
MICs/minimum effective concentrations (MECs) were determined for each of the novel analogs against the three major human fungal pathogens, A. fumigatus, C. neoformans, and C. albicans. […] Thus, analogs of FK506 and FK520 can tolerate up to 100-fold reduction in antifungal activity and still be considered for in vivo testing. For C. neoformans, MICs were the most uniform and ranged from 0.2 to 2 μg/mL, which is between 4- and 40-fold reduced for antifungal activity.
To assess the antifungal activity against other human fungal pathogens, JH-FK-05 was selected to test against a panel of pathogenic molds and drug-resistant A. fumigatus strains (Table 4). JH-FK-05 registered MECs as low as 1 μg/mL for some of these highly recalcitrant species, such as Mucor circinelloides, Rhizopus oryzae, and pan azole-resistant A. fumigatus (strain F14946).
In vitro antifungal activities of FK506, FK520, and analogs were assessed in RPMI 1640 (Sigma-Aldrich) for all strains tested. MICs/minimum effective concentrations (MECs) for each drug were measured using modified Clinical and Laboratory Standards Institute (CLSI) M38-A2 and M27-A3 standard in vitro antifungal susceptibility protocols. Broth microdilution assays for MIC/MEC assessment were performed as described previously (see, Juvvadi P R, et al., 2019, Nat Commun 10:4275). All antifungal assays with C. neoformans were performed at 37° C. Antifungal susceptibility testing for C. albicans was performed in the presence of a uniform 1 μg/mL concentration of fluconazole to sensitize the organism to calcineurin inhibition.
For orientation: Dilution methods test growth across graded concentrations, often in twofold steps.

For assay [1], the system named is IL-2 expression in primary murine CD4+ T cells. In words: In vitro immunosuppressive activity, IL-2 expression (Example 1). Type of assay: cell-based, mouse. As to conditions: for IC50: Mus musculus, CD4+ T, 72 h, PMA and ionomycin stimulation, read-out: IL-2 50% inhibitory concentration (IC50). The protocol:
The potent immunosuppressive activity of FK506 and FK520 is what precludes these highly antifungal compounds from being utilized clinically to treat invasive fungal infections. Therefore, it is essential to understand the level of immunosuppressive activity for each of these analogs to determine if these C-22 modifications improve the fungal selectivity. Utilizing a primary murine T-cell model, IL-2 expression was assessed following growth in the presence of calcineurin inhibitors (FIG. 6A). Naive, primary CD4^+ T cells were collected from mice and grown for 72 h in the presence of FK506, FK520, or an analog. Following stimulation with phorbol 12-myristate 13-acetate (PMA) and ionomycin, the proportion of cells producing IL-2, a key calcineurin-dependent cytokine, was measured with flow cytometry. All compounds generated a dose-dependent reduction in IL-2 production.
Spleen and lymph nodes were collected from C57BL/6 mice and homogenized through a 40-μm filter. Pan-CD4^+ T cells were enriched using a MagniSort mouse CD4 T-cell kit (eBioscience) according to the manufacturer's protocol. Thereafter, CD4^+CD25^− CD44^loCD62L^hi naive T cells were sorted by fluorescence-activated cell sorting (FACS). The naive CD4^+ T cells were grown in Iscove's modified Dulbecco's medium (IMDM) supplemented with glutamine, penicillin, streptomycin, gentamicin, 2-mercaptoethanol, and 10% fetal bovine serum (FBS). Cells were then cultured on anti-hamster IgG-coated plates in the presence of hamster anti-CD3 epsilon and anti-CD28 antibodies (BD Biosciences), neutralizing anti-IL-4 antibody (eBioscience), recombinant IL-12 (10 ng/mL), and recombinant IL-2 (50 U/mL) for 72 h. During this period, cells were grown in the presence of 2× serially diluted FK506, FK520, or analog suspended in DMSO for 72 h. During the last 4 h of culture, phorbol 12-myristate 13-acetate (PMA; Sigma), ionomycin (Sigma), and GolgiStop (BD Biosciences) were added to the culture to facilitate detection of intracellular cytokines via flow cytometry. Live cells were stained with fluorescein isothiocyanate (FITC)-conjugated anti-CD4 antibody (eBioscience) and fixable viability dye eFluor 506 (eBioscience) on ice, followed by fixation and permeabilization using the Foxp3 transcription factor staining kit (eBioscience). Intracellular staining was performed at room temperature using phycoerythrin (PE)-conjugated anti-IL-2 antibody (eBioscience), followed by analysis with a BD LSRFortessa X-20 flow cytometer.

Assay [2] shares this test system. In words: In vitro immunosuppressive activity, IL-2 expression (Example 4). Type of assay: cell-based, mouse. As to conditions: Mus musculus, CD4+ T. The protocol:
Spleen and lymph nodes were collected from C57BL/6 mice and homogenized through a 40 μm filter. Pan-CD4^+ T cells were enriched using MagniSort Mouse CD4 T cell Kit (eBioscience) according to the manufacturer's protocol. Thereafter, CD4+CD25−CD44lo CD62Lhi naïve T cells were FACS-sorted. The naïve CD4+ T cells were grown in Iscove's Modified Dulbecco's Medium (IMDM) supplemented with glutamine, penicillin, streptomycin, gentamicin, 2-mercaptoethanol, and 10% FBS. Cells were then cultured on anti-hamster IgG coated plates in the presence of hamster anti-CD3 epsilon and anti-CD28 antibodies (BD Biosciences), neutralizing anti-IL-4 antibody (eBioscience), recombinant IL-12 (10 ng/mL), and recombinant IL-2 (50 U/mL) for 72 h. During this period, cells were grown in the presence of 2× serially diluted FK506, FK520, or analog suspended in DMSO for 72 h. During the last 4 h of culture, phorbol 12-myristate 13-acetate (PMA; Sigma), ionomycin (Sigma), and GolgiStop (BD Biosciences) were added to the culture to facilitate detection of intracellular cytokines via flow cytometry.
Live cells were stained with FITC-conjugated anti-CD4 antibody (eBioscience) and Fixable Viability Dye eFluor 506 (eBioscience) on ice, followed by fixation and permeabilization using the Foxp3 Transcription Factor Staining Kit (eBioscience). Intracellular staining was performed at room temperature using PE-conjugated anti-IL-2 antibody (eBioscience), followed by analysis with a BD LSRFortessa X-20 flow cytometer.

The test system of a further assay is C. neoformans. In words: MIC assay (Example 4). The class given is cell-based, Cryptococcus neoformans. The note with it: 37° C.; for MIC: Cryptococcus neoformans, read-out: C. neoformans MIC. Here is the method: Both JH-FK-10 and JH-FK-11 maintained in vitro antifungal activity against C. neoformans with MICs of 0.8 and 1.6 μg/mL, respectively (Table 11).
In vitro antifungal activity of FK506, FK520, and analogs was assessed in RPMI 1640 (Sigma-Aldrich) for all strains tested. Minimum inhibitory concentrations (MIC) for each drug were measured using modified Clinical and Laboratory Standards Institute (CLSI) M38-A2 and M27-A3 standard in vitro antifungal susceptibility protocols. Broth microdilution assays for MIC assessment were performed as previously described. All antifungal assays with C. neoformans were performed at 37° C.

For orientation: MIC means the lowest concentration that inhibits growth of the organism.

In brackets after ≈: the same amount, converted by molar mass. Entries after “also recorded” stand apart in the source; their conditions may differ. Where two headings read alike, the source gives them in different places.

As to `C=CC[C@@H]1/C=C(\C)C[C@H](C)C[C@H](OC)[C@H]2O[C@@](O)(C(=O)C(=O)N3CCCC[C@H]3C(=O)O[C@H](/C(C)=C/[C@@H]3CC[C@@H](O)[C@H](OC)C3)[C@H](C)[C@@H](O)C/C1=N/NC(=O)CC)[C@H](C)C[C@@H]2OC` [JH-FK-02], in the assay on Aspergillus fumigatus, the minimal effective concentration was found to be 2 µg/mL. In assay [1], the IC50 stood at 42.6 nM. Also, in assay [1] (relative to FK506), the “fold increase of IL-2 IC50 / reduction of immunosuppression compared to FK506” value was > 380 fold.

Regarding `C=CCC1C=C(C)CC(C)CC(OC)C2OC(O)(C(=O)C(=O)N3CCCCC3C(=O)OC(C(C)=CC3CCC(O)C(OC)C3)C(C)C(O)CC1=O)C(C)CC2OC` (stereo not shown) [FK506, reference compound], the IC50 in assay [2] (Table 12) came out at 0.11 nM. The MIC with C. neoformans (Table 11), with C. neoformans (Table 12) and in the assay with C. neoformans (Table 13) was 0.05 µg/mL (≈ 0.0622 µM) throughout. For the same compound, the minimal effective concentration in the assay on Aspergillus fumigatus is 0.016 µg/mL. Moreover, the “IL-2 inhibition / immunosuppression” value in assay [1] was “highest level of IL-2 inhibition”.

For `CC[C@@H]1/C=C(\C)C[C@H](C)C[C@H](OC)[C@H]2O[C@@](O)(C(=O)C(=O)N3CCCC[C@H]3C(=O)O[C@H](/C(C)=C/[C@@H]3CC[C@@H](O)[C@H](OC)C3)[C@H](C)[C@@H](O)C/C1=N/NC(C)=O)[C@H](C)C[C@@H]2OC` [JH-FK-05], the IC50 in assay [2] (Table 13) and in assay [1] was 20 nM in each case. For the same compound, the minimum inhibitory concentration (MIC) in the assay with C. neoformans (Table 13) worked out at 1 µg/mL (≈ 1.18 µM). Also, the minimal effective concentration in the assay on Aspergillus fumigatus amounted to 2 µg/mL. In the assay with Aspergillus fumigatus (echinocandin-resistant strain EMFR-S678P), this compound registered an MIC/MEC of 2 µg/mL (≈ 2.36 µM).

In assay [2] (Table 12), `CC[C@@H]1/C=C(\C)C[C@H](C)C[C@H](OC)[C@H]2O[C@@](O)(C(=O)C(=O)N3CCCC[C@H]3C(=O)O[C@H](/C(C)=C/[C@@H]3CC[C@@H](O)[C@H](OC)C3)[C@H](C)[C@@H](O)CC1=O)[C@H](C)C[C@@H]2OC` [FK520, reference compound] had an IC50 of 0.48 nM. Besides, the “C. neoformans MIC” value in the assay with C. neoformans (Table 11), in the assay with C. neoformans (Table 12) and in the assay on C. neoformans (Table 13) was 0.05 µg/mL each time. The “IL-2 inhibition / immunosuppression” value in assay [1] is on record as “highest level of IL-2 inhibition; also recorded: slightly reduced compared to that of FK506”.
